Test results: patent publication US8557800B2, “Sphingosine kinase inhibitors” (Apogee Biotechnology Corporation, priority 2005, dated 2013)
Where “and” joins values, the source holds several entries; their conditions need not be identical. Equal values may be shown once.

Experiments:
[1] = test system: mouse JC mammary adenocarcimona cell line growing subcutaneously in Balb/c mice
Method: The antitumor activity of the representative SK inhibitors were evaluated using a syngeneic tumor model that uses the mouse JC mammary adenocarcimona cell line growing subcutaneously in immunocompetent Balb/c mice (Lee et al., 2003, Oncol Res 14: 49).
In FIG. 1, Balb/c mice, 6-8 weeks old, were injected subcutaneously with 10^6 JC cells suspended in phosphate-buffered saline. The SK inhibitors Compounds 62 and 57 were dissolved in PEG400 and administered to mice every-other day at a dose of 100 mg/kg. Body weights and tumor volumes were monitored daily. In FIG. 1, tumor growth is expressed as the tumor volume relative to day 1 for each animal.

[2] = test system: mice, multiple cycles of DSS-induced inflammation; assay: Chronic DSS-colitis model (35-day); format: in vivo, mouse
Method: FIG. 13. Effects of Compound 62 on the DAI in the chronic DSS-colitis model. Mice received 2 cycles (7 days per cycle) of DSS (1.5% cycle 1 and 1% cycle 2), 2 cycles of normal drinking water and were randomized by DAI on Day 28 into groups of 8 mice. The mice were then treated as follows: No DSS (▪)—normal drinking water and orally dosed with PEG400 every day for 7 days (water control); DSS alone (▴)—drinking water containing 1.5% DSS and orally dosed with PEG daily for 7 days; DSS+Compound 62 (▾)—drinking water containing 1.5% DSS and orally dosed with Compound 62 (50 mg/kg) every day for 7 days; DSS+Dipentum (♦)—drinking water containing 1.5% DSS and orally dosed with Dipentum (50 mg/kg). *p<0.001 versus No DSS group.
A 35-day model of IBD was used to evaluate the effectiveness of the SK inhibitors in mice that experience multiple cycles of DSS-induced inflammation. This chronic model is similar to the acute model, except that the DSS concentration in the drinking water is lower and animals receive periodic exposure to DSS (DSS on days 1-7, water on Days 8-13, DSS on day 14-21, water on Days 22-27 and then DSS until the completion of the study on Day 35). In these experiments, treatment of the mice with an SK inhibitor or Dipentum began on Day 28 and continued daily until the completion of the study. The DAI index was monitored every other day until Day 28 and then daily until Day 35. Animals were sacrificed on Day 35, and changes in the colon length and cytokine profiles were measured.

[3] = test system: Cox-2 activity in human endothelial cells; assay: TNFα-induced PGE2 production, ELISA; format: cell-based; conditions: 100 ng of TNFα/mL 18 hours
Method: (§1) FIG. 6. Inhibition of TNFα-induced Cox-2 activity by Compound 62. Rat IEC6 cells (Panel A) or human endothelial cells (Panel B) were incubated for 18 hours with dimethylsulfoxide (DMSO) as a solvent control, or 100 ng of TNFα/mL in the presence of DMSO or […] of Compound 62. Levels of PGE2 secreted into the medium were quantified by ELISA. Values represent the mean±sd for triplicate samples in a typical experiment.
(§2) To determine the effects of the SK inhibitors on Cox-2 activity, an ELISA assay was used to measure PGE2 production by IEC6 rat intestinal epithelial cells and human endothelial cells treated with TNFα.

[4] = test system: Cox-2 activity in IEC6 rat intestinal epithelial cells; assay: TNFα-induced PGE2 production, ELISA; format: cell-based; conditions: 100 ng of TNFα/mL 18 hours
Method: as §1, §2

[5] = test system: C57BL/6 mice, DSS model of IBD; assay: Acute DSS-colitis model; format: in vivo, mouse; conditions: 2% DSS, 50 mg/kg oral daily
Method: We have conducted experiments with SK inhibitors using the dextran sulfate sodium (DSS) model of IBD. In these experiments, male C57BL/6 mice were provided with standard rodent diet and water ad libitum. After their acclimation, the animals were randomly divided into groups of 5 or 6 for DSS (40,000 MW from ICN Biomedicals, Inc., Aurora, Ohio)—and drug-treatment. The SK inhibitors were dissolved in PEG400, and given once daily by oral gavage in a volume of 0.1 mL per dose. Dipentum, an FDA-approved anti-colitis drug whose active ingredient, olsalazine, is converted to 5-aminosalicylic acid in vivo, was used as a positive control. The mice were given normal drinking water or 2% DSS and treated orally with an SK inhibitor or Dipentum at a dose of 50 mk/kg daily. The body weight of each animal was measured each day, and the Disease Activity Index (DAI) was scored for each animal on Days 4-6. On Day 6, the animals were sacrificed by cervical dislocation and the entire colon was removed and measured to the nearest 0.1 cm. Portions of the colons were then fixed, sectioned and their histologies were assessed on a blinded basis to determine their Histology Score. Other portions of the colons were used for biochemical analyses of inflammation markers.

physchem = conditions: aqueous with cosolvent or surfactant or cyclodextrin
Fyn = Fyn (Homo sapiens, UniProt P06241); assay: Kinase selectivity panel; format: biochemical; conditions: read-out: percent of control activity, Fyn
Method: (§3) A common problem with attempts to develop protein kinase inhibitors is the lack of selectivity toward the target kinase since the majority of these compounds interact with nucleotide-binding domains that are highly conserved among kinases. […] The compound was tested at a single concentration of 50 μM.

CHK1 = CHK1 (Homo sapiens, UniProt O14757); assay: Kinase selectivity panel; format: biochemical; conditions: read-out: percent of control activity, CHK1
Method: as §3

Ca^2+/calmodulin PK IV = Ca^2+/calmodulin PK IV (Homo sapiens, UniProt Q16566); assay: Kinase selectivity panel; format: biochemical; conditions: read-out: percent of control activity, Ca^2+/calmodulin PK IV
Method: as §3

MEK kinase 1 = assay: Kinase selectivity panel; format: biochemical; conditions: 50 μM
Method: as §3

CDK1/cyclinB = CDK1/cyclinB (Homo sapiens, UniProt P06493); assay: Kinase selectivity panel; format: biochemical; conditions: read-out: percent of control activity, CDK1/cyclinB
Method: as §3

cSrc = cSrc (Homo sapiens, UniProt P12931); assay: Kinase selectivity panel; format: biochemical; conditions: read-out: percent of control activity, cSrc
Method: as §3

CDK2/cyclinE = CDK2/cyclinE (Homo sapiens, UniProt P24941); assay: Kinase selectivity panel; format: biochemical; conditions: read-out: percent of control activity, CDK2/cyclinE
Method: as §3

CDK1/cyclinB, sequence (P06493 whole entry, species assumed): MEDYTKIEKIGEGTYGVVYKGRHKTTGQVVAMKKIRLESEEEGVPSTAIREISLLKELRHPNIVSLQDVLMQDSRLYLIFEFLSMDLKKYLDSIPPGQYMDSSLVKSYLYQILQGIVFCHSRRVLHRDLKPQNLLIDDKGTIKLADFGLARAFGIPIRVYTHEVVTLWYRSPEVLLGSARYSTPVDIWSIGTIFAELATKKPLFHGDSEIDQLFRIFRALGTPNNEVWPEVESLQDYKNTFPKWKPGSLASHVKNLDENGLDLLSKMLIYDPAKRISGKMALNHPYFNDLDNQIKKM
CDK1/cyclinB, sequence (P14635 whole entry partner, species assumed): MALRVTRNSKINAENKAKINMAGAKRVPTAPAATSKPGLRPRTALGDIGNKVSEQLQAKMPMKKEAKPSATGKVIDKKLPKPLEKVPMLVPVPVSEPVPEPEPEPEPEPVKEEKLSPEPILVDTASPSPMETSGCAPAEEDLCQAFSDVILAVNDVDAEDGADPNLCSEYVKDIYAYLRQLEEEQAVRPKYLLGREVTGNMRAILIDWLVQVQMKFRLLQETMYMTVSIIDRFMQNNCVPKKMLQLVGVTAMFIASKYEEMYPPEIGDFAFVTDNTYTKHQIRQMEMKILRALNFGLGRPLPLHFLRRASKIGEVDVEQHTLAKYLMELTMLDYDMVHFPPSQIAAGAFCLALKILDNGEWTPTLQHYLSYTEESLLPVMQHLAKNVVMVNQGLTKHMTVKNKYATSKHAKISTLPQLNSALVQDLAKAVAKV
CHK1, sequence (O14757 whole entry, species assumed): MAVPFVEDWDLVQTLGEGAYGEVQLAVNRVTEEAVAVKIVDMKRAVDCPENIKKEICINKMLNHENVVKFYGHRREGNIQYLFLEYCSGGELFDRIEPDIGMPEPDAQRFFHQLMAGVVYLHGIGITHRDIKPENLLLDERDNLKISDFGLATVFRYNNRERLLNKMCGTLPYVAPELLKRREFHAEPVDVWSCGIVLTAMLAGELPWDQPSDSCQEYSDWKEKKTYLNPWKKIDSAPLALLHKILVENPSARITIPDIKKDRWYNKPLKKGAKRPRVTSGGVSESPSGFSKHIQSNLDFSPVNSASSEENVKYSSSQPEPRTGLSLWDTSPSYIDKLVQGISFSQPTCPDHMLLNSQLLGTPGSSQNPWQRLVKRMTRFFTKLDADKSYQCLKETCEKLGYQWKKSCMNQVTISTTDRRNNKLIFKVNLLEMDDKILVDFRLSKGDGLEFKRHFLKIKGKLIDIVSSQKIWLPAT
Fyn, sequence (P06241 whole entry, species assumed, the tested form may be a part): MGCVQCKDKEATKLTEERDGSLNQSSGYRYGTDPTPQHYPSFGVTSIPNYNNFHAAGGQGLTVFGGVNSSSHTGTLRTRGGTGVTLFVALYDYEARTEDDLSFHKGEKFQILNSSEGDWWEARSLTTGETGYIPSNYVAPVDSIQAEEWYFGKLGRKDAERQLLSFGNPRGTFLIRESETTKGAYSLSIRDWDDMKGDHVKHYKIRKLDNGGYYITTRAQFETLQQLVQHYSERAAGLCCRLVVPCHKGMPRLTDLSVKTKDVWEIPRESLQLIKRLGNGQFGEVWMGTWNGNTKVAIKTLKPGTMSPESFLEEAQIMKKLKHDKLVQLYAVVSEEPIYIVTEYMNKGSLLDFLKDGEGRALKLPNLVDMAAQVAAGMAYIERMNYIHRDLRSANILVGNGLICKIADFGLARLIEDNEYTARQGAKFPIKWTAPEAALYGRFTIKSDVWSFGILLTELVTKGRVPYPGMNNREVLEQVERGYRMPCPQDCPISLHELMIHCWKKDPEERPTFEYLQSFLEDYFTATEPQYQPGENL
cSrc, sequence (P12931 whole entry, species assumed): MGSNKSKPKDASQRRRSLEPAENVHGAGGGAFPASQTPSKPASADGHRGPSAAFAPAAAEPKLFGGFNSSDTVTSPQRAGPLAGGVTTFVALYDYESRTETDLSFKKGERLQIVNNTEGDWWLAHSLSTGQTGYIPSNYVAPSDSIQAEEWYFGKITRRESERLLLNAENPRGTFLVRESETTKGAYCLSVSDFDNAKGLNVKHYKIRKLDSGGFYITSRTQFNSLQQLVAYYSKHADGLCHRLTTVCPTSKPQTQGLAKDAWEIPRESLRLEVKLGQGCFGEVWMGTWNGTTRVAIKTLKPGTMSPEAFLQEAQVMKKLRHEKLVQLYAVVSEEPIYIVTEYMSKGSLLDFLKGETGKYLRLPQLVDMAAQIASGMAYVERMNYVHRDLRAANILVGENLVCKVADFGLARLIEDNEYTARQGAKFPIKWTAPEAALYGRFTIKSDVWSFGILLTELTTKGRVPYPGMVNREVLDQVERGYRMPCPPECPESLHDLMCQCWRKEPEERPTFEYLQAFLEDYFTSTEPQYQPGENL

Structure (SMILES): O=C(NCc1ccncc1)C12CC3CC(C1)CC(c1ccc(Cl)cc1)(C3)C2 [Compound 62, 3-(4-Chloro-phenyl)-adamantane-1-carboxylic acid (pyridin-4-ylmethyl)-amide]
- inhibition of tumor growth relative to controls ([1]; 100 mg/kg oral every-other day in PEG400): 69%
- In vivo activity ([1]; JC tumor model, intraperitoneal (ip) or oral (po) administration): active - ip and po
- toxicity to the mice in dose-response study ([1]; mouse, in vivo): No toxicity
- colon length ([2]; 50 mg/kg oral daily Day 28-35, DSS alone 4.9±0.2, water 7.8±0.3): 6.2±0.2 cm
- increase in DAI ([2]; 50 mg/kg oral daily from Day 28 to Day 35, third DSS exposure): significantly suppressed
- colon SK expression (immunohistochemistry) ([2]; DSS mice, 50 mg/kg oral daily): clearly reduced
- serum level of IL-6 ([2]; at sacrifice, Day 35): reduced
- colon S1P levels ([2]; oral 50 mg/kg daily, 7 days prior to sacrifice): significant reductions
- colon levels of pro-inflammatory cytokines TNFα, IL-1β, IFN-γ and IL-6 ([2]; treated during the final DSS cycle): reduced levels
- induction of Cox-2 activity by TNFα (PGE2 production) [3]: strongly suppressed
- induction of Cox-2 activity by TNFα (PGE2 production) [4]: strongly suppressed
- increase in colon myeloperoxidase (MPO) activity [5]: markedly attenuated
- colon length ([5]; Day 6): intermediate length
- histological examination of colon sections ([5]; Day 6): no or mild crypt damage, no or low levels of inflammatory cell infiltration and no edema in the submucosa
- Disease Activity Index (intensity of IBD manifestations) ([5]; Days 4-6): reduced
- colonic S1P levels vs DSS-alone ([5]; LC-MS/MS): markedly lower
- solubility (physchem): ≥ 15000 µg/mL and 30000 µM to 40000 µM
- remaining activity at 50 µM (Fyn): 84 ± 5%
- remaining activity at 50 µM (CHK1): 142 ± 13%
- remaining activity at 50 µM (Ca^2+/calmodulin PK IV): 81 ± 3%
- percent of control activity, MEK kinase 1 (MEK kinase 1): 104 ± 3%
- remaining activity at 50 µM (CDK1/cyclinB): 105 ± 1%
- remaining activity at 50 µM (cSrc): 115 ± 3%
- remaining activity at 50 µM (CDK2/cyclinE): 106 ± 6%
